# Tested on: NL-RLuc virus
# Assay: Inhibition of HIV replication (NL-RLuc virus, luciferase readout in MT-2 cells)
# Type: cell-based
# Conditions: Human immunodeficiency virus 1, MT2, 120 h, read-out: Activity
# Outline: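 MT-2 cells were infected with NL-RLuc (Renilla luciferase in place of nef) in the presence of serial compound dilutions, in RPMI 1640 with 10% heat-inactivated FBS. After 5 days, luciferase was measured. EC50 came from the median effect equation using at least 2 experiments.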
smiles,measurement,value
"Cc1nc(CO)c(-c2ccc(OCCc3ccc(F)cc3)cc2)c(-c2ccc3c(c2)CCCO3)c1[C@H](OC(C)(C)C)C(=O)O [Example 14, (S)-2-(tert-Butoxy)-2-(4-(chroman-6-yl)-5-(4-(4-fluorophenethoxy)phenyl)-6-(hydroxymethyl)-2-methylpyridin-3-yl)acetic Acid]",EC50,< 100 nM

# — patent US10106504B2, “Pyridin-3-yl acetic acid derivatives as inhibitors of human immunodeficiency virus replication” (priority 2015, dated 2018)
